The source made the active and inactive calls. No cut-off for these calls is given here.
How the values were obtained:
[1] = target: T1, Centromere-associated protein E (Homo sapiens, UniProt Q02224); assay: Inhibition of CENP-E (unknown origin) ATPase activity in absence of light illumination
HeLa = assay: Antiproliferative activity against human HeLa cells assessed as inhibition of cell proliferation; type: functional, cell-based
[2] = target: T1, Centromere-associated protein E; assay: Inhibition of CENP-E (unknown origin) ATPase activity in presence 365 nm of light illumination
[3] = target: T1, Centromere-associated protein E; assay: Inhibition of CENP-E in human HeLa cells assessed as misaligned chromosome at 1 uM incubated for 2 hrs by DAPI staining based assay; type: cell-based

T1 sequence (Q02224 whole entry): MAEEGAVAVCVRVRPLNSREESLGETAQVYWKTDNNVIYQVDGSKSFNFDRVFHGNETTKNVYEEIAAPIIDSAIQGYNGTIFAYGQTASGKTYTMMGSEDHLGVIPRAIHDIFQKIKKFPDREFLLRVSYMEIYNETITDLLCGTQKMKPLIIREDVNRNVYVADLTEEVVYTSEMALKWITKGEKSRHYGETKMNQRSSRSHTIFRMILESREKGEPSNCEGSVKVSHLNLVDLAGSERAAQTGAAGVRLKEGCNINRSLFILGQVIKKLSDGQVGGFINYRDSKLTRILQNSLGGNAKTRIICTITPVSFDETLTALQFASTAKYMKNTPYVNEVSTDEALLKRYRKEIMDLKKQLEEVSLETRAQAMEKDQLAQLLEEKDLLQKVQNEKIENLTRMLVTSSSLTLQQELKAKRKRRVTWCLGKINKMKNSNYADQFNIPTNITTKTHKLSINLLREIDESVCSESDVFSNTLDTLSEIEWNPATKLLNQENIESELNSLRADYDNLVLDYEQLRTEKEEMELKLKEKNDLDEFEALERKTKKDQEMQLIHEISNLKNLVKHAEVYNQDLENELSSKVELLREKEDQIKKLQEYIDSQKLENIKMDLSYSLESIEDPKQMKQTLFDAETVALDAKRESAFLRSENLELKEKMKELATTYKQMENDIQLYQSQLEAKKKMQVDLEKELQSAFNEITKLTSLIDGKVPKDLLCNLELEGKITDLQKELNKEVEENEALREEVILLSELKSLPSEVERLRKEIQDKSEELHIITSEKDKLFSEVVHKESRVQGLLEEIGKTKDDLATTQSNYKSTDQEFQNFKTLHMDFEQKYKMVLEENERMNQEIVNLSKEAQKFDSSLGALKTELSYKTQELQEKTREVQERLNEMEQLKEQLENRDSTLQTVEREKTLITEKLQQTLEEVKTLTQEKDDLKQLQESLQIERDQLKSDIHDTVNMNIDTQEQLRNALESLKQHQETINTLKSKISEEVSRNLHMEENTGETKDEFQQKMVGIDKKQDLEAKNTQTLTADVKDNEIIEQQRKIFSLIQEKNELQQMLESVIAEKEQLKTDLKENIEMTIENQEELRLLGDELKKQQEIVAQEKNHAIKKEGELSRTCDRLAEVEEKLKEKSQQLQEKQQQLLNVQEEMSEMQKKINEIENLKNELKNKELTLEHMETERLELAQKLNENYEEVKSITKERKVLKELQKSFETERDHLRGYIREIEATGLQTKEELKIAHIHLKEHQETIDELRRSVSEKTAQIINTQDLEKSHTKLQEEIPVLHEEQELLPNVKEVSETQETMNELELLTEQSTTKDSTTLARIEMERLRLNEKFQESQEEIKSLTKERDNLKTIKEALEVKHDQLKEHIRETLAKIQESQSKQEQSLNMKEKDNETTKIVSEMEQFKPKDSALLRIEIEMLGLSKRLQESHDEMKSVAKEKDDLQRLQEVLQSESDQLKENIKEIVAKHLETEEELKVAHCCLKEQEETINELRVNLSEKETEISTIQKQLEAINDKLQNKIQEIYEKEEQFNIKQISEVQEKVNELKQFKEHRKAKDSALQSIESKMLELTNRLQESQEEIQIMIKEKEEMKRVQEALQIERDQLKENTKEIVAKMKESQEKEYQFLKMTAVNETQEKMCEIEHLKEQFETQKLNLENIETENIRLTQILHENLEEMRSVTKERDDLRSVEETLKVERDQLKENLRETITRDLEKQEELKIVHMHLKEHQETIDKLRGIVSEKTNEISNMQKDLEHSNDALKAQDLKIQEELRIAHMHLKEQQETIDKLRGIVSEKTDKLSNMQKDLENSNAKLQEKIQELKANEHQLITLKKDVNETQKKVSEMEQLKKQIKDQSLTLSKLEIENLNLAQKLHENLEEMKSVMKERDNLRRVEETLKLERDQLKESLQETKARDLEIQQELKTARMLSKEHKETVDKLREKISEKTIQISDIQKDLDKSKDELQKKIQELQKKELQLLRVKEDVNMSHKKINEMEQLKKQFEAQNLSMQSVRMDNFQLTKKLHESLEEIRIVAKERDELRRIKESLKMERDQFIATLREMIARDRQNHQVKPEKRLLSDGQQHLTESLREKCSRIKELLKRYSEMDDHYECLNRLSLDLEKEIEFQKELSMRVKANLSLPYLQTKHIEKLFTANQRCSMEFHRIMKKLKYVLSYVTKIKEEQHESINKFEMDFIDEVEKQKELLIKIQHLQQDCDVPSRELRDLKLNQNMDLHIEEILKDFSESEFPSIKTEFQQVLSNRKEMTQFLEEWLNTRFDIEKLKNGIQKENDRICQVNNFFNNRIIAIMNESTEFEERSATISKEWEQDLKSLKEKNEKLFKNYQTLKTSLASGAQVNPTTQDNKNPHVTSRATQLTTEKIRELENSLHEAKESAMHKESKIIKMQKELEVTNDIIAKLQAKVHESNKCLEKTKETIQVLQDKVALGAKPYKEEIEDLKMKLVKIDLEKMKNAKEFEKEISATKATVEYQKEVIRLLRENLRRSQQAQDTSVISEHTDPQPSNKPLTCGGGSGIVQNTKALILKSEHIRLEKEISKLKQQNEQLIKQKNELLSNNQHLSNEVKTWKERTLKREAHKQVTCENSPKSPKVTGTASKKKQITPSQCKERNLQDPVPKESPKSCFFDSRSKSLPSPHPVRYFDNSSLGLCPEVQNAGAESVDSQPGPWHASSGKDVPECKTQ

SMILES | IC50 [1] | IC50 (HeLa) | IC50 [2] | inhibition [3]
CNC(=O)[C@H](Cc1ccc(/N=N/c2c(C)nn(-c3ccc(F)cc3F)c2C)cc1)NC(=O)c1ccc(OC(C)C)c(Cl)c1 | 339 nM | 10000 nM | > 501 nM | 
CNC(=O)[C@H](Cc1ccc(/N=N/c2c(C)nn(C(=N)N)c2C)cc1)NC(=O)c1ccc(OC(C)C)c(Cl)c1 | 245 nM | 10000 nM | 151 nM | 
CNC(=O)[C@H](Cc1ccc(/N=N/c2c(C)nn(Cc3ccccc3)c2C)cc1)NC(=O)c1ccc(OC(C)C)c(Cl)c1 | 204 nM | > 10000 nM | > 501 nM | 
CNC(=O)[C@H](Cc1ccc(/N=N/c2c(C)nn(-c3ccccn3)c2C)cc1)NC(=O)c1ccc(OC(C)C)c(Cl)c1 | 93.3 nM | 10000 nM | 162 nM | 
CNC(=O)[C@H](Cc1ccc(/N=N/c2c(C)nn(C(=O)c3ccccc3)c2C)cc1)NC(=O)c1ccc(OC(C)C)c(Cl)c1 | 204 nM | > 10000 nM | 129 nM | 
CNC(=O)[C@H](Cc1ccc(/N=N/c2c(C)nn(-c3cccc4ccccc34)c2C)cc1)NC(=O)c1ccc(OC(C)C)c(Cl)c1 | < 501 nM | 10000 nM | > 501 nM | 
CNC(=O)[C@H](Cc1ccc(/N=N/c2c(C)nn(CCO)c2C)cc1)NC(=O)c1ccc(OC(C)C)c(Cl)c1 | 12 nM | 200 nM | 195 nM | 
CNC(=O)[C@H](Cc1ccc(/N=N/c2c(C)nn(C3CCCCC3)c2C)cc1)NC(=O)c1ccc(OC(C)C)c(Cl)c1 | 105 nM |  | 97.7 nM | 
CNC(=O)[C@H](Cc1ccc(/N=N/c2c(C)nn(C(C)C)c2C)cc1)NC(=O)c1ccc(OC(C)C)c(Cl)c1 | 123 nM | > 10000 nM | 158 nM | 
CNC(=O)[C@H](Cc1ccc(/N=N/c2c(C)nn(C3=NCCN3)c2C)cc1)NC(=O)c1ccc(OC(C)C)c(Cl)c1 | 240 nM | > 10000 nM | 417 nM | 

The next lines start with the values.

IC50 [1] | IC50 (HeLa) | IC50 [2] | inhibition [3] | SMILES
123 nM | 550 nM | 120 nM |  | CNC(=O)[C@H](Cc1ccc(/N=N/c2c(C)nn(C=O)c2C)cc1)NC(=O)c1ccc(OC(C)C)c(Cl)c1
15.8 nM | 191 nM | 372 nM |  | CNC(=O)[C@H](Cc1ccc(/N=N/c2c(C)nn(C)c2C)cc1)NC(=O)c1ccc(OC(C)C)c(Cl)c1
 |  |  | inactive | CNC(=O)[C@H](Cc1ccc(NN=C(C(C)=O)C(C)=O)cc1)NC(=O)c1ccc(OC(C)C)c(Cl)c1
145 nM | 10000 nM | 51.3 nM |  | CNC(=O)[C@H](Cc1ccc(/N=N/c2c(C)nn(C(N)=S)c2C)cc1)NC(=O)c1ccc(OC(C)C)c(Cl)c1
33.9 nM | 447 nM | 83.2 nM |  | CCCC(=O)n1nc(C)c(/N=N/c2ccc(C[C@H](NC(=O)c3ccc(OC(C)C)c(Cl)c3)C(=O)NC)cc2)c1C
209 nM | > 10000 nM | 245 nM |  | CNC(=O)[C@H](Cc1ccc(/N=N/c2c(C)nn(C(C)=O)c2C)cc1)NC(=O)c1ccc(OC(C)C)c(Cl)c1
20 nM | 380 nM | 166 nM |  | CNC(=O)[C@H](Cc1ccc(/N=N/c2c(C)noc2C)cc1)NC(=O)c1ccc(OC(C)C)c(Cl)c1
15.1 nM | 457 nM | 129 nM |  | CNC(=O)[C@H](Cc1ccc(/N=N/c2c(C)nn(C(N)=O)c2C)cc1)NC(=O)c1ccc(OC(C)C)c(Cl)c1
380 nM | > 10000 nM | > 501 nM |  | CNC(=O)[C@H](Cc1ccc(/N=N/c2c(C)nn(C(=O)OC)c2C)cc1)NC(=O)c1ccc(OC(C)C)c(Cl)c1
> 501 nM | > 10000 nM | > 501 nM |  | CNC(=O)[C@H](Cc1ccc(/N=N/c2c(C)n[nH]c2C)cc1)NC(=O)c1ccc(OC(C)C)c(Cl)c1

Source: ChEMBL document CHEMBL6127013, “A chemical platform for the efficient screening of arylazopyrazole-based photoswitchable CENP-E inhibitors using mild cyclization reactions” (Bioorg Med Chem Lett, 2024)
